Results published in PMC12655527, “An Investigational Study on the Role of ADME Agents’ Genetic Variation on DD217 Pharmacokinetics and Safety Profile” (Pharmaceuticals, 2025).

Tested on: patients undergoing knee replacement surgery
Experiment: Bleeding events during 14-day therapy, phase II trial
Type: in vivo, human
Conditions: for Bleeding, n (safety outcomes): 14 days
Excerpt: The design, eligibility criteria, and outcomes of the phase II clinical trial evaluating the safety and tolerability of DD217 (NCT05189002, ClinicalTrials.gov) have been described previously. Briefly, this was a multicenter, double-blind, randomized, prospective phase II study designed to determine the optimal dosing regimen and to assess the safety and efficacy of DD217 for the prevention of venous thromboembolism (VTE) in patients undergoing knee replacement surgery. Patients were randomized into one of three groups: two groups received oral DD217 at doses of 40 mg or 60 mg once daily, starting on the morning of the first postoperative day, and one group received the active comparator, dalteparin sodium. The treatment duration was 14 days.
In total, seven cases of DVT/PE were documented during the trial: four in the DD217 40 mg/day group, one in the DD217 60 mg/day group, and two in the dalteparin sodium group. In addition, two bleeding events were recorded: one clinically relevant non-major bleed in the DD217 60 mg/day group and one clinically non-relevant minor bleed in the dalteparin sodium group.

## CC(=N)N(C)c1ccc(C(=O)Nc2ccc(C)cc2C(=O)Nc2ccc(Cl)cn2)cc1.Cl [DD217, N-(5-chloropyridin-2-yl)-5-methyl-2-[4-(N-methylacetimidamido)benzamido]benzamide hydrochloride]
DD217 40 mg/day oral, of 16 patients
  Bleeding, n (safety outcomes): 0 n
DD217 60 mg/day group, clinically relevant non-major bleed
  bleeding events: one
DD217 60 mg/day oral, of 18 patients
  Bleeding, n (safety outcomes): 1 n
